Read-outs that look alike come from different tables or passages of the source.
Key:
[1] = tested on: polynucleotide having the sequence ATACATGGTACATA; assay: Photoactivation and binding to 14mer polynucleotide; details: 1 mM ATACATGGTACATA, blue light as example 9; NMR
Protocol: The procedure of example 9 was repeated with a 1 mM solution of a polynucleotide having the sequence ATACATGGTACATA, and using the compound obtained in example 2 in place of that obtained in example 1.

[2] = tested on: HaCaT; assay: Phototoxicity, neutral red dye uptake, HaCaT cells; format: cell-based
Protocol: (§1) 2×6 ft Cosmolux RA Plus (Cosmedico), 15500/100 W light sources were used, each filtered to attenuate UVB/UVC wavelengths. Irradiance was measured with a Waldmann PUMA meter, calibrated to the source using a double grating Spectroradiometer (Bentham, UK).
(§2) Immediately before use, the compounds were dissolved in warm Earle's Balanced Salt Solution (EBSS), sonicated and vortexed to assist dissolution. For experiments, cells were seeded at densities of 3- or 5×10^4 cells/cm^2. After overnight incubation, washed cells were incubated with test compounds in EBSS for 1 h at 310 K/5% CO2. Cells were then irradiated with 5 J cm^−2 glass filtered UVA (1.77 mW cm^−2: λmax 365 nm) for 50 min. Test compounds were removed and cells either prepared immediately for photogenotoxicity assays, or incubated with complete medium for 24 h before assessing phototoxicity. Control plates were treated identically to the test plates and sham irradiated.
(§3) Phototoxicity was monitored by measuring the uptake of neutral red dye into viable cells. Briefly, after irradiation cells were washed and then incubated with DMEM containing 5% FCS, 1% NEAA and 50 μg ml^−1 neutral red dye for 3 h at 310 K/5% CO2. After this time, cells were rapidly washed with formaldehyde containing 1% (w/v) CaCl2, and solubilised in 50% EtOH containing 1% acetic acid. Absorbance was read at 540 nm against a solubilisation solution as blank. The IC50 value was defined as the concentration of compound that inhibited dye uptake by 50% and was calculated using non-linear regression (Graphpad Prism). Goodness of fit was determined from the R^2 values of the curves and 95% confidence intervals.

[3] = tested on: A2780; assay: Phototoxicity, neutral red dye uptake, A2780 cells; format: cell-based
Protocol: as §1, §2, §3

[4] = tested on: A2780CIS; assay: Phototoxicity, neutral red dye uptake, A2780CIS cells; format: cell-based
Protocol: as §1, §2, §3

[5] = dark, sham irradiated control, read-out: IC50 Value HaCaT Dark
[6] = irradiated 5 J cm^-2 UVA, λmax 365 nm, 50 min, neutral red uptake after 24 h, read-out: IC50 Value HaCaT 365 nm
[7] = dark, sham irradiated control, read-out: IC50 Value A2780 Dark
[8] = irradiated 5 J cm^-2 UVA, λmax 365 nm, 50 min, neutral red uptake after 24 h, read-out: IC50 Value A2780 365 nm
[9] = dark, sham irradiated control, read-out: IC50 Value A2780CIS Dark
[10] = irradiated 5 J cm^-2 UVA, λmax 365 nm, 50 min, neutral red uptake after 24 h, read-out: IC50 Value A2780CIS 365 nm

Substance	Binding to 14mer polynucleotide after photoactivation [1]	IC50 [2, 5]	IC50 [2, 6]	IC50 [3, 7]	IC50 [3, 8]	IC50 [4, 9]	IC50 [4, 10]
Cis,trans-[Pt^IV(en)(N3)2(OH)2] [Example 2]	binding of species containing the cis-[PtII(en)] moiety to the GG moiety had taken place	–	–	–	–	–	–
Trans,trans,trans-[Pt(N3)2(OH)2(NH3)(2-pic)] [FM171]	–	> 236 µM	55.3 µM	> 236 µM	51 µM	> 236 µM	59.8 µM
Trans,trans,trans-[Pt(N3)2(OH)2(NH3)(4-pic)] [FM174]	–	98.8 µM	6.5 µM	–	–	–	–
Trans,trans,trans-[Pt(N3)2(OH)2(NH3)(py)] [FM165]	–	> 244 µM	6.1 µM	> 244 µM	1.9 µM	> 244 µM	16.9 µM
Trans,trans,trans-[Pt(N3)2(OH)2(NH3)(tz)] [FM172]	–	> 241 µM	5.8 µM	187 µM	5.4 µM	> 241 µM	16.1 µM
